# Read-outs that look alike come from different tables or passages of the source. Bridges are numbered along the chain shown (N, C = ends). Where no end group is shown, it is not given here.
# Tests used:
# [1] = molecular target: T1, N-type Ca^2+ channel in IMR-32 cells (Homo sapiens, UniProt Q00975); assay: N-type Ca2+ channel blockade in IMR-32 cells (fluorescent Ca2+ indicator Indo-1); type: cell-based; details: 5 μM nitrendipine present; for inhibition at 1 µM: IMR-32, 1 μM; for inhibition at 10 µM: IMR-32, 10 μM
# T1 construct: host or cells: IMR-32 (differentiated with dibutyryl cAMP and bromodeoxyuridine)
# T1 sequence (Q00975 whole entry): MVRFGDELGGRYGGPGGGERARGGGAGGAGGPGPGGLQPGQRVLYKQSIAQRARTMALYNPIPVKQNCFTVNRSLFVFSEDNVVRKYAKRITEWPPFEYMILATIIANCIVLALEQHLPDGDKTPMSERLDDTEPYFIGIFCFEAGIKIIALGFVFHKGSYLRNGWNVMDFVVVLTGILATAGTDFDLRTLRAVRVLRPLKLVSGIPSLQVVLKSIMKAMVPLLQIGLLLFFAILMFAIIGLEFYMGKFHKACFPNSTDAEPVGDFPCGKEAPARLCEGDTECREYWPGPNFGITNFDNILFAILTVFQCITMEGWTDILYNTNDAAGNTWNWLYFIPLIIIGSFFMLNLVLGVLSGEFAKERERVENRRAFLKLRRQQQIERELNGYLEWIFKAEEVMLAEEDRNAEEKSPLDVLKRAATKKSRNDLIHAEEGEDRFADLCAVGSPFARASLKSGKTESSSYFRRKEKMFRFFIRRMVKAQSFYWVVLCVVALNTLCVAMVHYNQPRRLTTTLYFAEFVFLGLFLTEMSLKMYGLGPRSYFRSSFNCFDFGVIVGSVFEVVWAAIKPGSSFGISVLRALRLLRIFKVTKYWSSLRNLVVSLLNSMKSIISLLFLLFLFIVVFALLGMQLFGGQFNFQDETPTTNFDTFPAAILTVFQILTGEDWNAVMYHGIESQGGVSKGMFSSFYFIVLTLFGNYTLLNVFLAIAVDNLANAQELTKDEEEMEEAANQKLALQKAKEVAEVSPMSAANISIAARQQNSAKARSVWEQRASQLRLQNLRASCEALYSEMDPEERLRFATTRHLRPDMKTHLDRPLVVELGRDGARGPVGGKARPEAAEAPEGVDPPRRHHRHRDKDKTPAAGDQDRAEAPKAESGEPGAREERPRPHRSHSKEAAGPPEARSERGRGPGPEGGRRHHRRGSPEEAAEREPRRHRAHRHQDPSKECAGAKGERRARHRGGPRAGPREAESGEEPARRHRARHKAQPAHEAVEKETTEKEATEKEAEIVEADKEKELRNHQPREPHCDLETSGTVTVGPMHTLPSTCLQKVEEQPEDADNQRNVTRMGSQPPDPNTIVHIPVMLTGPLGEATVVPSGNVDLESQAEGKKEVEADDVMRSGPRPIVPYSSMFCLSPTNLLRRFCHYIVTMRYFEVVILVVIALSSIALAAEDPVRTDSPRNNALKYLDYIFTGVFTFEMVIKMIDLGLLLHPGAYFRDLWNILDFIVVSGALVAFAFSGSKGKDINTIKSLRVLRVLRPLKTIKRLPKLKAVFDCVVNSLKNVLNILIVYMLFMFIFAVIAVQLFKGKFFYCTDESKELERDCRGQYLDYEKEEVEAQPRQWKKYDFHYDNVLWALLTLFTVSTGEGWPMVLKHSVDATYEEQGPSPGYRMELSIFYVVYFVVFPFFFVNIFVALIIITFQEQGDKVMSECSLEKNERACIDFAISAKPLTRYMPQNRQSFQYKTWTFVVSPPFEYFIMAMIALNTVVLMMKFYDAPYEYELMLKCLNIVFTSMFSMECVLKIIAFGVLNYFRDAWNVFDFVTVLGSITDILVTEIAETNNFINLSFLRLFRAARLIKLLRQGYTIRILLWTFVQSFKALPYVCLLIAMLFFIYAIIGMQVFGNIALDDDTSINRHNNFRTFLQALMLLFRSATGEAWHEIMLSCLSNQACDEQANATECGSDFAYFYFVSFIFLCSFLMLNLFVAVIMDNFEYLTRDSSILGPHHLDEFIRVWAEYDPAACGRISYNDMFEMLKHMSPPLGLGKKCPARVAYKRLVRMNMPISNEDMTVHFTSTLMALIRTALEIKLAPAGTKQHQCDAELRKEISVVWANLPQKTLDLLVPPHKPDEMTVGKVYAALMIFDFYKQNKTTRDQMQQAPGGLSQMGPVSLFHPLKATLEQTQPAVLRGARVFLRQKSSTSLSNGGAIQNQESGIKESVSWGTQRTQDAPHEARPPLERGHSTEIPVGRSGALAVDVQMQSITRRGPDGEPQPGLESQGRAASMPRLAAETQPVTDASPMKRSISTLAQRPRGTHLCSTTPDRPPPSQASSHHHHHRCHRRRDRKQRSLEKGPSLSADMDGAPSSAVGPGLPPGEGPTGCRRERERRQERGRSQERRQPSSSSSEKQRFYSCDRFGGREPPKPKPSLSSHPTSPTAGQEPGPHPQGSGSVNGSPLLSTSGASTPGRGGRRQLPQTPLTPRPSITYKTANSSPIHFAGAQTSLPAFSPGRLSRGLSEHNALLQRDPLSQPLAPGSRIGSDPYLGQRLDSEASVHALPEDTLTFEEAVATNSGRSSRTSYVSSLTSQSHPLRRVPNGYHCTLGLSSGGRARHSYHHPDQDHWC
# DBA/2 mice = assay: Audiogenic seizure (anticonvulsant) test in DBA/2 mice; type: in vivo; details: Mus musculus, intravenous, read-out: DBA/2 mice % Protection
# Protocol: A compound of the present invention was dissolved in water using 10% (weight/volume) Emulphor (GAF Corp., Wayne, N.J.) surfactant. Substances were administered by intravenous injection into the retro-orbital venous sinus. All testing was performed fifteen minutes or forty-five minutes after drug injection. All the male mice, 3-4 weeks old were obtained from Jackson Laboratories Bar Harbour, Me. Immediately before anticonvulsant testing, mice were placed upon a wire mesh, four inches square suspended from a steel rod. The square was slowly inserted through 180 degree and mice observed for thirty seconds. Any mouse falling from the wire mesh was scored as ataxia.
# Mice were placed into an enclosed acrylic plastic chamber (21 cm height, approximately 30 cm diameter) with a high-frequency speaker (4 cm diameter) in the center of the top lid. An audio signal generator (Protek model B-810) was used to produe a continuous sinusoidal tone that was swept linearly in frequency between 8 kHz and 16 kHz once each 10 msec. The average sound pressure level (SPL) during stimulation was approximately 100 dB at the floor of the chamber. Mice were placed within the chamber and allowed to acclimatize for one minute. DBA/2 mice in the vehicle-treated group responded to the sound stimulus (applied until tonic extension occurred, or for a maximum of sixty seconds) with a characteristic seizure sequence consisting of wild running followed by clonic seizures and later by tonic extension, and finally by respiratory arrest and death in 80% or more of the mice. In vehicle-treated mice, the entire sequence of seizures to respiratory arrest lasts approximately 15-20 seconds.
# The incidence of all the seizure phases in the drug-treated and vehicle-treated mice was recorded, and the occurrence of tonic seizures were used for calculating anticonvulsant ED50 values by probit analysis. Mice were used only once for testing at each time and dose point.
# male Swiss-Webster mice = assay: Anti-Writhing Test in Mice (AW), acetic acid; type: in vivo
# From the text: Anti-Writhing Test in Mice (AW) Test Protocol
# The purpose of this test is to evaluate drugs for analgesic-like activity. The AW test determines the effect of drugs on the response to a presumed painful stimulus in mice and is used as a preliminary in vivo procedure for the identification of potential analgesic agents.
# Known analgesics with low, moderate, or high efficacy in man allow mice to tolerate intra-peritoneal administration of dilute acetic acid as evidenced by lesser incidence of writhing movements. The AW test measures the nociceptive response to acetic acid in mice and provides an objective, reliable, and quantitative estimate of efficacy and potency of potential analgesic compounds. […]
# Compounds are dissolved or suspended in physiological saline containing 2% Emulphor. […] Drug doses are expressed as the active moiety and are normally administered to mice (10, 30, and 100 mg/kg IP, SC, PO, or IM) in a volume of 10 mL/kg, 1 hour prior to testing; ICV doses (in μg/kg) are administered in a volume of 0.5 mL/kg, 5 minutes prior to testing. […]
# Mice are treated with a dilute solution of acetic acid (0.6%, 10 mL/kg IP) which elicits writhing. […] Writhing movements (abdominal contractions, stretching of the torso and hind legs, and concave arching of the back) are counted for 5 minutes commencing 7 minutes after acetic acid administration. […]
# N-type calcium channel = details: Bowersox et al. 1994; cited from earlier work
# [2] = system: models of ischemia and pain; details: Bowersox et al. 1994; cited from earlier work
Molecule,inhibition at 1 µM [1],inhibition at 10 µM [1],responders at 10 mg/kg (DBA/2 mice),other results
"CC(C)=CCN(c1ccc(OCc2ccccc2)cc1)C1CCN(CCC(C)C)CC1 [Example 1, (4-Benzyloxy-phenyl)-(3-methyl-but-2-enyl)-[1-(3-methyl-butyl)-piperidin-4-yl]-amine]",40%,79%,,responders at 30 mg/kg (DBA/2 mice; 30 mg/kg): 100%
"CC(C)=CCN(c1ccc(OCc2ccccc2)cc1)C1CCN(CCC(C)(C)C)CC1 [Example 2, (4-Benzyloxy-phenyl)-[1-(3,3-dimethyl-butyl)-piperidin-4-yl]-(3-methyl-but-2-enyl)-amine]",62%,93%,80%,
"CC(C)=CCN(c1ccc(OCc2ccccc2)cc1)C1CCN(Cc2ccc(O)cc2)CC1 [Example 5, 4-{4-[(4-Benzyloxy-phenyl)-(3-methyl-but-2-enyl)-amino]-piperidin-1-ylmethyl}-phenol]",47%,100%,80%,
"CC(C)=CCN(c1ccc(OCc2ccccc2)cc1)C1CCN(Cc2ccc(N(C)C)cc2)CC1 [Example 6, (4-Benzyloxy-phenyl)-[1-(4-dimethylamino-benzyl)-piperidin-4-yl]-(3-methyl-but-2-enyl)-amine]",,,100%,responders at 30 mg/kg (DBA/2 mice; 30 mg/kg): 100%
"CC(C)=CCN(c1ccc(OCc2ccccc2)cc1)C1CCN(Cc2ccc[nH]2)CC1 [Example 7, (4-Benzyloxy-phenyl)-(3-methyl-but-2-enyl)-[1-(1H-pyrrol-2-ylmethyl)-piperidin-4-yl]-amine]",,,100%,responders at 30 mg/kg (DBA/2 mice; 30 mg/kg): 100%
"CC(C)=CCN(c1ccc(OCc2ccccc2)cc1)C1CCN(Cc2c[nH]cn2)CC1 [Example 8, (4-Benzyloxy-phenyl)-[1(1H-imidazol-4-ylmethyl)-piperidin-4-yl]-(3-methyl-but-2-enyl)-amine]",16%,71%,60%,
"CC(C)=CCN(c1ccc(OCc2ccccc2)cc1)C1CCN(C(=O)C2CN(C(C)C)CCN2CCC(C)C)CC1 (stereo not shown) [Example 15, {4-[(4-Benzyloxy-phenyl)-(3-methyl-but-2-enyl)-amino]-piperidin-1-yl}-[4-isopropyl-1-(3-methyl-butyl)-piperazin-2-yl]-methanone]",51%,92%,20%,"responders at 30 mg/kg (DBA/2 mice; 0.75 h, 30 mg/kg (45 min)): 100%"
"CC(C)=CCN(c1ccc(OCc2ccccc2)cc1)C1CCN(Cc2ccccc2)CC1 [Example 19, (4-Benzyloxy-phenyl)-(1-benzyl-piperidin4-yl)-(3-methyl-but-2-enyl)-amine]",,,80%,IC50 [1]: 720 nM
"CC(C)=CCN(c1ccc(OCc2ccccc2)cc1)C1CCN(CCC(C)O)CC1 (stereo not shown) [Example 20, 4-{4-[(4-Benzyloxy-phenyl)-(3-methyl-but-2-enyl)-aminol]-piperidin-1-yl}-butan-2-ol]",,,40%,IC50 [1]: 3000 nM
"CC(C)=CCN(c1ccc(OCc2ccccc2)cc1)C1CCN(C(=O)[C@@H](O)CC(C)C)CC1 [Example 44, (S)-1-{4-[(4-Benzyloxy-phenyl)-(3-methyl-but-2-enyl)-amino]-piperidin-1-yl}-2-hydroxy-4-methyl-pentan-1-one]",64%,107%,,responders at 30 mg/kg (DBA/2 mice; 30 mg/kg): 100%; Anti-Writhing % Protection (male Swiss-Webster mice; 10 mg/kg): 30%; Anti-Writhing % Protection (male Swiss-Webster mice; 30 mg/kg): 100%
"CC(C)=CCN(c1cccc(OCc2ccccc2)c1)C1CCN(CCC(C)(C)C)CC1 [Example 46, (3-Benzyloxy-phenyl)-[1-(3,3-dimethyl-butyl)-piperidin-4-yl]-(3-methyl-but-2-enyl)-amine]",55%,98%,,
"CC(C)=CCN(c1ccc(CCC(C)(C)C)cc1)C1CCN(Cc2ccc[nH]2)CC1 [Example 47, [4-(3,3-Dimethyl-butyl)-phenyl]-(3-methyl-but-2-enyl)-[1-(1H-pyrrol-2-ylmethyl)-piperidin-4-yl]-amine]",,,,IC50 [1]: 900 nM
"CC(C)=CCN(c1ccc(OCc2ccccc2)cc1)C1CCCN(Cc2ccccc2)C1 (stereo not shown) [Example 49, (4-Benzyloxy-phenyl)-(1-benzyl-piperidin-3-yl)-(3-methyl-but-2-enyl)-amine]",,,,IC50 [1]: 1200 nM
"CC(C)=CCN(c1ccc(OCc2ccccc2)cc1)C1CCCN(Cc2ccc(C(C)(C)C)cc2)C1 (stereo not shown) [Example 50, (4-Benzyloxy-phenyl)-[1-(4-tert-butyl-benzyl)-piperidin-3-yl]-(3-methyl-but-2-enyl)-amine]",86%,96%,,
"SNX-111: selective N-type calcium channel blocker (CKGKGAKCSRLMYDCCTGSCRSGKC-NH2; disulfide 1-16, 15-25, 8-20; UniProt P05484 46-70, looked up)",,,,N-type calcium channel blockade selectivity (N-type calcium channel): selective N-type calcium channel blocker; activity in models of ischemia and pain [2]: demonstrated activity in a number of models of ischemia and pain
